Data taken from patent publication US11826373B2, “Methods for treatment of diseases” (Galera Labs, LLC, priority 2011, dated 2023).

Test system: healthy male and female subjects
Assay: Human Phase 1 single rising dose safety and tolerability of GC4403
Format: in vivo
Settings: 4 subjects dosed
Method: In a Phase 1 randomized, double-blind, placebo-controlled single rising dose safety, tolerability and pharmacokinetics study, 54 healthy male and female subjects were dosed from 2.2 to 25 mg of GC4403 administered intravenously over 30 minutes. Disposition of GC4403 is multi-exponential and follows linear pharmacokinetics with generally proportional increases in AUC and Cmax with increasing dose over the dose ranges studied. […] GC4403 is excreted unchanged in the urine and accounts for approximately 9 to 17% of the dose administered. No significant cardiovascular or vital sign effects, no significant physical examination abnormalities, and no significant abnormalities in routine clinical laboratory assessments were observed. Facial tingling, generalized tingling, paraesthesias and facial warmth were reported in a dose responsive manner, occurring at the 16.7 and 25 mg GC4403 doses.

## [Cl][Mn-5]1234([Cl])[n+]5c6cccc5C[NH+]1[C@@H]1CCCC[C@H]1[NH+]2CC[NH+]3[C@@H]1CCCC[C@H]1[NH+]4C6 (stereo partly shown) [GC4403]
2.2 mg
  Any Event (treatment-emergent adverse event): 1 (25) N (%)
  Conjunctivitis (treatment-emergent adverse event): 1 (25) N (%)
  Cough (treatment-emergent adverse event): 0 (0) N (%)
  Discolored Urine (treatment-emergent adverse event): 0 (0) N (%)
  Drowsiness (treatment-emergent adverse event): 0 (0) N (%)
  Facial Warmth (treatment-emergent adverse event): 0 (0) N (%)
  Feeling Drunk (treatment-emergent adverse event): 0 (0) N (%)
  Headache (treatment-emergent adverse event): 0 (0) N (%)
  Inj. Site Pressure (treatment-emergent adverse event): 0 (0) N (%)
  Inj. Site Reaction (treatment-emergent adverse event): 0 (0) N (%)
  Injection Site Pain (treatment-emergent adverse event): 0 (0) N (%)
  Lightheadedness (treatment-emergent adverse event): 0 (0) N (%)
  Paresthesia (treatment-emergent adverse event): 0 (0) N (%)
  Skin Tightness (treatment-emergent adverse event): 0 (0) N (%)
  Taste Perversion (treatment-emergent adverse event): 0 (0) N (%)
  Tingling (treatment-emergent adverse event): 0 (0) N (%)
  Tingling Mouth (treatment-emergent adverse event): 0 (0) N (%)
3.3 mg
  Any Event (treatment-emergent adverse event): 2 (50) N (%)
  Conjunctivitis (treatment-emergent adverse event): 0 (0) N (%)
  Cough (treatment-emergent adverse event): 0 (0) N (%)
  Discolored Urine (treatment-emergent adverse event): 0 (0) N (%)
  Drowsiness (treatment-emergent adverse event): 0 (0) N (%)
  Facial Warmth (treatment-emergent adverse event): 0 (0) N (%)
  Feeling Drunk (treatment-emergent adverse event): 0 (0) N (%)
  Headache (treatment-emergent adverse event): 0 (0) N (%)
  Inj. Site Pressure (treatment-emergent adverse event): 0 (0) N (%)
  Inj. Site Reaction (treatment-emergent adverse event): 1 (25) N (%)
  Injection Site Pain (treatment-emergent adverse event): 0 (0) N (%)
  Lightheadedness (treatment-emergent adverse event): 1 (25) N (%)
  Paresthesia (treatment-emergent adverse event): 0 (0) N (%)
  Skin Tightness (treatment-emergent adverse event): 0 (0) N (%)
  Taste Perversion (treatment-emergent adverse event): 0 (0) N (%)
  Tingling (treatment-emergent adverse event): 0 (0) N (%)
  Tingling Mouth (treatment-emergent adverse event): 0 (0) N (%)
4.9 mg
  Any Event (treatment-emergent adverse event): 1 (25) N (%)
  Conjunctivitis (treatment-emergent adverse event): 0 (0) N (%)
  Cough (treatment-emergent adverse event): 0 (0) N (%)
  Discolored Urine (treatment-emergent adverse event): 0 (0) N (%)
  Drowsiness (treatment-emergent adverse event): 0 (0) N (%)
  Facial Warmth (treatment-emergent adverse event): 0 (0) N (%)
  Feeling Drunk (treatment-emergent adverse event): 0 (0) N (%)
  Headache (treatment-emergent adverse event): 0 (0) N (%)
  Inj. Site Pressure (treatment-emergent adverse event): 0 (0) N (%)
  Inj. Site Reaction (treatment-emergent adverse event): 0 (0) N (%)
  Injection Site Pain (treatment-emergent adverse event): 0 (0) N (%)
  Lightheadedness (treatment-emergent adverse event): 0 (0) N (%)
  Paresthesia (treatment-emergent adverse event): 0 (0) N (%)
  Skin Tightness (treatment-emergent adverse event): 0 (0) N (%)
  Taste Perversion (treatment-emergent adverse event): 0 (0) N (%)
  Tingling (treatment-emergent adverse event): 0 (0) N (%)
  Tingling Mouth (treatment-emergent adverse event): 0 (0) N (%)
7.4 mg
  Any Event (treatment-emergent adverse event): 3 (75) N (%)
  Conjunctivitis (treatment-emergent adverse event): 0 (0) N (%)
  Cough (treatment-emergent adverse event): 0 (0) N (%)
  Discolored Urine (treatment-emergent adverse event): 0 (0) N (%)
  Drowsiness (treatment-emergent adverse event): 0 (0) N (%)
  Facial Warmth (treatment-emergent adverse event): 0 (0) N (%)
  Feeling Drunk (treatment-emergent adverse event): 0 (0) N (%)
  Headache (treatment-emergent adverse event): 1 (25) N (%)
  Inj. Site Pressure (treatment-emergent adverse event): 1 (25) N (%)
  Inj. Site Reaction (treatment-emergent adverse event): 0 (0) N (%)
